Test results reported in ChEMBL document CHEMBL1128940, “Dual inhibition of angiotensin-converting enzyme and neutral endopeptidase by tricyclic benzazepinone thiols” (Bioorg Med Chem Lett, 1996).

Legend:
[1] = target: Angiotensin-converting enzyme (Homo sapiens, UniProt P12821+Q9BYF1); assay: Inhibition of Angiotensin I converting enzyme; assay type: protein assay
Neprilysin = Neprilysin (Homo sapiens, UniProt P08473); assay: Inhibition of neutral endopeptidase
Neprilysin, sequence (P08473 whole entry): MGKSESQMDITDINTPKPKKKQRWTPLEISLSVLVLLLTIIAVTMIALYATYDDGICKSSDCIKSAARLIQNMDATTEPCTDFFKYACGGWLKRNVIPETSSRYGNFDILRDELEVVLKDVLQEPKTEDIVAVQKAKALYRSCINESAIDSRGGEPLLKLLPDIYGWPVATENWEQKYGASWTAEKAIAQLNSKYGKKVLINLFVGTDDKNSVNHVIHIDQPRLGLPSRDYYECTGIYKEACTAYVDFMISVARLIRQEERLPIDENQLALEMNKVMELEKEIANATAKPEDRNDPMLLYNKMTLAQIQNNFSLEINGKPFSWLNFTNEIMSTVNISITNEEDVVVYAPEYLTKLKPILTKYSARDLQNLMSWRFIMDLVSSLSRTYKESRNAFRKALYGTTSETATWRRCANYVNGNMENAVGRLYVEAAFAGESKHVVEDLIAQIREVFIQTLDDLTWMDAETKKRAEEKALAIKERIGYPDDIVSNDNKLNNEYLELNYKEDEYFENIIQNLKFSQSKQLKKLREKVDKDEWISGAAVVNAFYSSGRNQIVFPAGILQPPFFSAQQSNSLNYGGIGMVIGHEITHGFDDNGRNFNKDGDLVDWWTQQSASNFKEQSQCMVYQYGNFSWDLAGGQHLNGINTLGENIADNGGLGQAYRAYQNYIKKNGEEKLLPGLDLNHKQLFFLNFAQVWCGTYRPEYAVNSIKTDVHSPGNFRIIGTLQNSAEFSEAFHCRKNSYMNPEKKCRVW

IC50 [1] | IC50 (Neprilysin) | Compound
165 nM | > 1000 nM | C[C@H](S)C(=O)NC1CCc2cccc3c2N(C1=O)[C@H](C(=O)O)C3 (some centres not stated)
62 nM | > 1000 nM | O=C(N[C@@H]1CCc2cccc3c2N(C1=O)[C@H](C(=O)O)C3)[C@@H](S)Cc1ccccc1
40 nM | 48 nM | O=C(N[C@H]1CCc2cccc3c2N(C1=O)[C@H](C(=O)O)C3)[C@@H](S)Cc1ccccc1
> 1000 nM | 505 nM | O=C(O)[C@@H]1Cc2cccc3c2N1C(=O)C(NC(=O)C1(S)Cc2ccccc2C1)CC3 (some centres not stated)
283 nM | 83 nM | O=C(NC1CCc2cccc3c2N(C1=O)[C@H](C(=O)O)C3)[C@H](S)Cc1ccccc1 (some centres not stated)
89 nM | > 1000 nM | O=C(NC1CCc2cccc3c2N(C1=O)[C@H](C(=O)O)C3)[C@@H](S)Cc1ccc(-c2ccccc2)cc1 (some centres not stated)
41 nM | > 1000 nM | CC[C@@H](C)[C@H](S)C(=O)NC1CCc2cccc3c2N(C1=O)[C@H](C(=O)O)C3 (some centres not stated)
< 100 nM | > 1000 nM | O=C(NC1CCc2cccc3c2N(C1=O)[C@H](C(=O)O)C3)[C@@H](S)C1CCCCC1 (some centres not stated)
> 1000 nM | > 1000 nM | CC(C)(S)C(=O)NC1CCc2cccc3c2N(C1=O)[C@H](C(=O)O)C3 (some centres not stated)
30 nM | 940 nM | CC(C)[C@H](S)C(=O)NC1CCc2cccc3c2N(C1=O)[C@H](C(=O)O)C3 (some centres not stated)
 | > 1000 nM | O=C(CS)NC1CCc2cccc3c2N(C1=O)[C@H](C(=O)O)C3 (some centres not stated)
253 nM | > 1000 nM | O=C(O)[C@@H]1Cc2cccc3c2N1C(=O)C(NC(=O)C1(S)CCCC1)CC3 (some centres not stated)
77 nM | 15 nM | O=C(N[C@H]1CCc2cccc3c2N(C1=O)[C@H](C(=O)O)C3)C(CS)Cc1ccc(-c2ccccc2)cc1 (stereo in doubt; 4m (S))
1120 nM | 12 nM | O=C(N[C@H]1CCc2cccc3c2N(C1=O)[C@H](C(=O)O)C3)C(CS)Cc1ccc(-c2ccccc2)cc1 (stereo in doubt; 4n (S))
